Key:
Type in all cases: cell-based
Streptococcus pneumoniae = test system: Streptococcus pneumoniae
Experimental: The peptides were examined for antibacterial efficacy against Staphylococcus aureus. To test the efficacy of peptides, dilutions of test peptides or PBS (for use as a control) were prepared in LB broth, and 100 μl aliquots of these placed in 96-well plates. A vial of planktonic bacterial stock was thawed in a 37° C. incubator and diluted to the level previously determined which would produce log phase growth after overnight incubation (see above). 25 μl of this bacterial dilution was then added to the test wells (some wells containing LB broth without peptide were left without any bacterial inoculation, these being used as a blank). After overnight growth, the concentration of bacteria in individual wells was assessed by measuring absorbance at 620 nm, in a microplate spectrophotometer. The average absorbance of wells for specific concentrations of peptides was calculated, and from this the percentage inhibition (relative to untreated wells) was also calculated and plotted against concentration (along with an estimate of error on that % inhibition). […] The inventor constructed an expanded library of peptides derived from either apolipoprotein B or apolipoprotein E in order to further evaluate polypeptides in accordance with the invention. Further experiments were then conducted to investigate the antibacterial activity of this peptide library against the bacteria P. aeroginosa, S. aureus and S. pneumoniae. The methods used to determine the IC50 values for each peptide were as described in the Example 1.

[1] = test system: Saccharomyces cerevisiae yeast cells (strain GenT01); assay: Gentronix GreenScreen GC yeast genotoxicity assay; settings: concentrations up to and including 100 μM, FIGS. 6A-6C
Experimental: A liquid handling robot is used to produce a serial dilution series of each test compound in a 96-well, black microplate with an optically clear base. […] In addition, a series of genotoxic and cytotoxic standards and non-toxic controls are run to provide internal quality control. The plates are covered with a breathable membrane and incubated overnight, without shaking, at 25° C.
After incubation, the microplates are uncovered and data collected using a Tecan Ultra 384 microplate reader. This instrument provides measurements of light absorbance and fluorescence in microplates; a standard fluorescein filter set (excitation 485/25 and emission 535/25) is used. Absorbance is read at 620 nm and is proportional to cell proliferation (which is lowered by toxic analytes). Fluorescence is proportional to the activity of the DNA repair system (increased by genotoxic analytes). The yeast cultures used are a genetically modified strain that express a green fluorescent protein whenever the cells carry out DNA damage repair. Fluorescence is normalised to the absorbance signal to correct for variation in cell yield caused by any cytolytic activity of the test compounds against the yeast cells. This produces a “fluorescence per cell” measurement termed “brightness”. In addition to the Gentronix Assay yeast strain (GenT01), a control Saccharomyces cerevisiae strain (GenC01) is also used, which is identical except for its ability to produce green fluorescent protein is disabled. This strain is used to provide a control to allow correction for substances which may be either autofluorescent themselves or which induce an autofluorescence in the yeast cells. The data collected is simply transferred into a Excel template where result evaluation sheets are automatically produced. The sheets contain the processed results in both a graphical and tabulated format, with automatic assessment of the result, i.e. positive or negative, and calculation of the lowest effective concentration (LEC), for both genotoxicity and cytotoxicity. […]

Pseudomonas aeruginosa [2] = test system: Pseudomonas aeruginosa
Experimental: To test the effect of treatment of the polypeptides according to the invention by autoclaving, a 400 μM stock solution of GIN1p was prepared in PBS, and 420 μl aliquots were placed in four Eppendorf tubes (with screw lids). After securing the lids, two of the tubes were loaded into a metal rack held within a Pyrex beaker, and placed into a Prestige Medical Clinical Autoclave. The remaining two tubes were left untreated, as a control. The autoclave was then activated, and underwent two autoclave cycles, each of which involved exposure of the peptide solutions to 126° C. for 11 min. Finally, efficacy of the two autoclaved and the two control peptide samples against P. aeruginosa was tested as previously described.
Referring to FIG. 7, there is shown the level of growth of Pseudomonas aeruginosa after exposure of a bacterial inoculum to various concentrations of GIN 1p (a polypeptide in accordance with the present invention) which had been either autoclaved or without autoclaving, expressed as a % of growth for untreated bacteria. Accordingly, polypeptides according to the invention are therefore suitable for use with products, which would normally be sterilised by autoclaving during the manufacturing procedure.

Pseudomonas aeruginosa [3] = assay: Antibacterial efficacy on peptide pre-treated contact lenses; settings: lens pre-treated with 250 μM peptide for 2 hours
Experimental: Referring to FIG. 2, there is shown a bar graph illustrating growth of Pseudomonas aeruginosa overnight on Johnson and Johnson Acuvue contact lenses following pre-treatment with polypeptide GIN 1p, or a control treatment. Growth was measured by examination by light microscopy, and by assessing metabolic activity of any bacteria present using MTT reduction. The data illustrates the efficacy of the antibacterial nature of the peptides according to the invention when applied to contact lenses. Antibacterial activity was assessed by measuring MTT reduction.
Lenses were placed in 24-well plates before treatment with 75 μl of 250 μM GIN-1p in PBS (pH7.4) or with 75 μl of PBS and incubated for 2 hours at […], before removal of these solutions from the lens by aspiration. A further 1 ml of PBS was then added to the wells to wash away any loosely attached peptide, before aspiration of this wash solution. […]
The plates were returned to the incubator at 37° C. overnight. […] The degree of formazan production was assessed by measuring absorbance at 540 nm for aliquots of these solutions; these values are shown in FIG. 2, and represent the average for four lenses, with the bars showing standard deviation. […]

Ac-LRKLRKRLLLRKLRKRLL-NH2 [MU_10]
IC50 (Streptococcus pneumoniae): 45 µM
Genotoxic response in test yeast strain (GenT01) [1]: failed to produce any genotoxic response
IC50 (Pseudomonas aeruginosa [2]): ~2 µM
Appearance of solution containing pre-treated contact lens after overnight incubation (Pseudomonas aeruginosa [3]; 10^4 challenge organisms, FIG. 3): colourless
Bacterial growth on contact lens surface by light micrograph after overnight incubation (Pseudomonas aeruginosa [3]; FIG. 4): minimal bacterial growth

From patent US8524861B2, “Treatment of bacterial infections” (priority 2004, dated 2013)
